These results are taken from paper PMC9500072, “Topical application of an irreversible small molecule inhibitor of lysyl oxidases ameliorates skin scarring and fibrosis” (Nature Communications, 2022).

In series [1] the test system is primary human fibroblasts. Briefly: Cell viability MTS assay. Type of series: cell-based. The method, then: Cell proliferation was measured using a standard 3-(4,5-dimethylthiazol-2-yl)-5-(3-carboxymethoxypheny1)-2-(4-sulfophenyl)-2H-tetrazolium, inner salt (MTS) assay (Cell Titer 96® Aqueous One Solution Cell Proliferation Assay, Promega, Australia) as per the manufacturer’s protocol. Briefly, 2500 primary scar fibroblasts below passage eight were seeded in each well of 96-well plates. The cells then exposed to 0, 1, 2.5, 5, 10, 25, 50, and 100 µM concentrations of PXS-4787 in cell culture media (DMEM-Glutamax™ supplemented with 10% Fetal Bovine Serum and 1% Penicillin/ Streptomycin, Life technologies, USA) for 24, 48 and 72 h. MTS solution (20 µL) was added in each well and incubated for 3.5 h in a humidified chamber at 37 °C and 5% CO2. The absorbance recorded on a UV–visible spectrophotometer (Enspire Multimode plate reader, PerkinElmer®) at 490 nanometers.
(Tetrazolium dyes change colour on reduction, which living cells bring about.)

For the next series, the system named is primary scar fibroblasts. Nature of the series: Scar-in-a-jar collagen I immunofluorescence (deposition, coherency). In kind it is cell-based, human. The method, then:
Fibrillar collagen I deposition was measured using confocal image analysis (Fig. 4f–k). […] Furthermore, coherency analysis[18] was used to determine collagen alignment. This analysis specifically analyses the alignment of collagen fibers, with more alignment increasing the score and more random distribution provided a lower score. In scar tissue scores are higher as fibers are densely parallel aligned in contrast to normal skin[18].
An experimental ‘Scar-in-a-jar’ protocol developed by Chen and Raghunath[36] was followed for quantitation of collagen per cell and to measure the orientation of collagen under fibrotic conditions in vitro. […] The images then further analyzed for collagen coherency measurements using ‘Fiji is just image j’s’ (FIJI) orientation J application as previously reported[18],[37]. For quantitation of collagen per cell, an image of whole chamber slide was captured using fluorescence microscope (Nikon inverted microscope). The 488 nm green and Hoechst stained blue images were collected, and analyzed using NIS-Elements software (Nikon, Japan). The six ROIs were selected from each image and the binary thresholds were recorded for each corresponding image. […]

Another series concerns GABAA, Muscimol, Central. Briefly: Eurofins panel 226500. In kind it is binding, rat. Conditions: 10 µM.
Series [2] concerns the target Platelet Activating Factor (PAF) (Homo sapiens, UniProt P25105). Nature of the series: Eurofins panel 265010. Type of series: binding.
A short description of another series: Caco-2 permeability. Conditions: human, Caco-2. In kind it is in vitro ADME. The method, then: (§1) The penetration of PXS-6302 across a monolayer of cells was tested using Caco-2 or MDCKII cells transfected with P-glycoprotein (Pgp).
Background: Passage across Caco-2 layers is used to estimate intestinal permeability.

For the next series, the system named is Caco-2 cells. Nature of the series: Caco-2 permeability. In kind it is in vitro ADME. On the procedure: as §1
The nature of the next series: LogD. Type of series: physicochemical.

Molecules are shown by their SMILES. Where “and” joins values, the source holds several entries; their conditions need not be identical. Equal values may be shown once. Entries after “also recorded” stand apart in the source; their conditions may differ.

Chain of Platelet Activating Factor (PAF) (P25105 whole entry): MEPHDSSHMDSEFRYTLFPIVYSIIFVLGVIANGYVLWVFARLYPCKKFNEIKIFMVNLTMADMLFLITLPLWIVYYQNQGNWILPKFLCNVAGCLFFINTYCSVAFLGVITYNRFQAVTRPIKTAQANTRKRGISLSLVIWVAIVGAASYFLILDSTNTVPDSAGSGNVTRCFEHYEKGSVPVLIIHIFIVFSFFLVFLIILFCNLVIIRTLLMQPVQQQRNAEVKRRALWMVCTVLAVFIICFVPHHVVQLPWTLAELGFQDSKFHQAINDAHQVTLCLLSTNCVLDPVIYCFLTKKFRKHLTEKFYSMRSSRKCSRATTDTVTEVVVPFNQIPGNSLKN

For `NC/C=C(\F)CS(=O)(=O)c1ccccc1` [PXS-4787], the fibroblast cell viability result in series [1] (0–100 µM, 24, 48 and 72 h) is reported as “No significant difference in viability; also recorded: no effect”. Besides, the “Supp Fig. 1 cell viability MTS reading (quantity not given)” value in series [1] (1μM, time 0 hrs) was 0.5417 and 0.513 and 0.509; in series [1] (1μM, time 24 hrs), 0.5067 and 0.503 and 0.5037; in series [1] (1μM, time 48 hrs) it was 0.5417 and 0.513 and 0.509; in series [1] (1μM, time 72 hrs), 0.4673 and 0.4607 and 0.4573; in series [1] (5μM, time 0 hrs), 0.505 and 0.4817 and 0.4813; in series [1] (5μM, time 24 hrs), 0.4947 and 0.4857 and 0.4823. The “Supp Fig. 1 cell viability MTS reading (quantity not given)” value in series [1] (5μM, time 48 hrs) was 0.505 and 0.4817 and 0.4813; in series [1] (5μM, time 72 hrs), 0.461 and 0.4743 and 0.4797; in series [1] (10μM, time 0 hrs) it was 0.5527 and 0.5103 and 0.5143; in series [1] (10μM, time 24 hrs), 0.533 and 0.5197 and 0.5183; in series [1] (10μM, time 48 hrs), 0.5527 and 0.5103 and 0.5143; in series [1] (10μM, time 72 hrs), 0.428 and 0.481 and 0.4927. Besides, the “Supp Fig. 1 cell viability MTS reading (quantity not given)” value in series [1] (25μM, time 0 hrs) is 0.569 and 0.5407 and 0.5403; in series [1] (25μM, time 24 hrs), 0.5363 and 0.517 and 0.513; in series [1] (25μM, time 48 hrs), 0.569 and 0.5407 and 0.5403; in series [1] (25μM, time 72 hrs), 0.45 and 0.5113 and 0.529; in series [1] (50μM, time 0 hrs) it was 0.5427 and 0.5253 and 0.526; in series [1] (50μM, time 24 hrs), 0.4977 and 0.5027 and 0.5057. The “Supp Fig. 1 cell viability MTS reading (quantity not given)” value in series [1] (50μM, time 48 hrs) was 0.5427 and 0.5253 and 0.526; in series [1] (50μM, time 72 hrs), 0.5073 and 0.527 and 0.526; in series [1] (100μM, time 0 hrs) it was 0.478 and 0.466 and 0.467; in series [1] (100μM, time 24 hrs), 0.468 and 0.457 and 0.456; in series [1] (100μM, time 48 hrs) it was 0.461 and 0.4477 and 0.449; in series [1] (100μM, time 72 hrs), 0.4837 and 0.4977 and 0.499. Further, the “deposited fibrillar collagen I” value in the series with primary scar fibroblasts (10 µM vs control and 1 µM) is “significantly reduced”. Also, the “collagen I coherency” value in the series on primary scar fibroblasts (1 and 10 µM vs control) is “significantly reduced coherency”. The “% Inh.” value in the series on GABAA, Muscimol, Central amounted to 13%. Further, the inhibition at 10 µM in series [2] was -11%.
As to `NC/C=C(\F)C(F)(F)S(=O)(=O)c1ccccc1` [PXS-6302], the efflux ratio in “Caco-2 permeability” (read-out: CaCo2 efflux ratio) is 0.8. Moreover, the apparent permeability (Papp) in the series “Caco-2 permeability” (read-out: CaCo2 permeability Papp) was determined as 34 ×10⁻⁶ cm/s. The “CaCo2 permeability (class in words)” value in the series with Caco-2 cells is “High and high permeability”. Besides, in “LogD”, the logD came out at 1.

For orientation: inhibition means the drop in the measured response relative to a control, in per cent. One may read the Papp as a coefficient for how fast a substance crosses the barrier. What is called logD is the decadic logarithm of the distribution of all forms, ionised or not, between an organic phase and buffer at a given pH. Read a low logD as lower lipophilicity.
